Columns and labels:
Format in all cases: cell-based, human
embryoid bodies (EBs) = assay: Beating frequency of embryoid bodies from CT or RA differentiations; conditions: RA-treated EBs, N=16, 37 degrees; control 45/min
Source text: EMBO Molecular Medicine Peer Review Process File - EMM-2014-04757
Please, discuss this finding.
The reviewer raises an important point and we have now discussed this finding on page-17 of the
the atrial-selective ion channel gene, KCNA5. These experiments also established that KCNJ3 and
KCNJ5 are regulated by COUP-TFII.
KCNJ3 and KCNJ5 in atrial CMs. Future studies aimed at dissecting the roles of COUP-TFI and
COUP-TFII during atrial differentiation are required to understand whether these genes act in
It also remains to be tested if
loss of COUP-TFI can be rescued by COUP-TFII and vice versa. However, since myocardial
ablation of COUP-TFII in the mouse results in a severe phenotype (25), it seems unlikely that
COUP-TFI can account for loss of COUP-TFII. Nonetheless, it is likely that deletion of both COUP-
TFI and COUP-TFII might result in a more severe phenotype”.
On page 5 a Fig S1G is introduced; this should be Fig S1F
This was an error, which has now been corrected.
Fig S2 is not introduced in the main text.
We apologize for the missing text describing Fig. S2. This is now included on page 6 of the revised
Fig 5 panel G label must be corrected. […]
a platform maintained at 37 degrees. We determined the beating frequency of N=16 EBs each. […]
rates recorded were 45/min in control EBs and 60/min in RA-treated EBs (Error bars represent […]

COUP-TFI (NR2F1) = assay: qPCR of COUP-TFI after RA treatment; conditions: day 31 GFP+ CMs, RA-treated vs control differentiation
Method: (§1) In order to determine the dynamics of COUP-TF expression following RA treatment, expression levels of both COUP-TFI and II were analyzed by qPCR at different time points and compared to control EBs. COUP-TFs were induced within 24 h of treatment with RA followed by dramatic increase in expression thereafter. […] The expression of COUP-TFs was maintained in differentiated CMs at day 31. COUP-TFI was expressed 20-fold higher, and COUP-TFII was enriched over 30-fold in hESC-atrial CMs compared to hESC-ventricular CMs (Fig4A and B). Antibodies selectively binding to COUP-TFI or COUP-TFII were used to verify the expression of these proteins. […]
(§2) atRA (Sigma) was diluted in DMSO to make a solution of 50 mmol/L which was further diluted in distilled water to have a stock solution of 0.0001 mol/L. atRA was used in a final concentration of 1 µmol/L in BPEL medium to direct atrial […]
(§3) Gene expression was determined on the HumanHT-12 v4 Expression BeadChip at ServiceXS, Leiden, The Netherlands. […]
(§4) For assessing gene expression by qPCR, cDNA was synthesized from approximately 1µ g of RNA obtained from three independent differentiations (iScript cDNA Synthesis Kit, BIO-RAD). Target identification was performed using SYBR Green (Applied Biosystems, Life technologies) and detected by CFX96 Real-Time PCR system (Bio-Rad). […]

COUP-TFII (NR2F2) = assay: qPCR of COUP-TFII after RA treatment; conditions: day 31 GFP+ CMs, RA-treated vs control differentiation
Method: as §1, §2, §3, §4

CC1=C(/C=C/C(C)=C/C=C/C(C)=C/C(=O)O)C(C)(C)CCC1 [RA, all-trans retinoic acid]
beating frequency of EBs (embryoid bodies (EBs)): 60 min⁻¹
COUP-TFI mRNA, hESC-atrial vs hESC-ventricular CMs (COUP-TFI (NR2F1)): 20 fold
COUP-TFII mRNA, hESC-atrial vs hESC-ventricular CMs (COUP-TFII (NR2F2)): over 30 fold

— article PMC4403042, “Atrial-like cardiomyocytes from human pluripotent stem cells are a robust preclinical model for assessing atrial-selective pharmacology” (EMBO Molecular Medicine, 2015)
